# Assays:
# Type in all cases: cell-based
# [1] = test system: 4th stage larvae (L4) of Dirofilaria immitis; test: Dirofilaria immitis, L4 Stage (DiL4) In Vitro Assay; conditions: Dirofilaria immitis, 72 h, read-out: DiL4 Minimum Effective Dose (MED), approximately 72 hours incubation; L4 larvae assessed for survival or paralysis
# [2] = test system: microfilariae of Dirofilaria immitis; test: Dirofilaria immitis, Microfilaria (DiMF) In vitro Assay; conditions: 72 h, read-out: DiMF Minimum Effective Dose (MED), approximately 72 hours incubation, microfilariae assessed for survival or paralysis
# [3] = test system: third stage larvae of Haemonchus contortus; test: Haemonchus contortus L3 (HcL3) Assay; conditions: 96 h, read-out: HcL3 Minimum Effective Dose (MED)
SMILES,minimal effective concentration [1],minimal effective concentration [2],minimal effective concentration [3]
"CCc1cc(C)n(Cc2ccc(C[C@H]3OC(=O)[C@H](CC(C)C)N(C)C(=O)[C@@H](C)OC(=O)[C@H](CC(C)C)N(C)C(=O)[C@@H](Cc4ccc(Cn5nc(C)cc5CC)cc4)OC(=O)[C@H](CC(C)C)N(C)C(=O)[C@@H](C)OC(=O)[C@H](CC(C)C)N(C)C3=O)cc2)n1 [Example 1b-186, (3S,6R,9S,12R,15S,18R,21S,24R)-6-(4-((5-ethyl-3-methyl-1H-pyrazol-1-yl)methyl)benzyl)-18-(4-((3-ethyl-5-methyl-1H-pyrazol-1-yl)methyl)benzyl)-3,9,15,21-tetraisobutyl-4,10,12,16,22,24-hexamethyl-1,7,13,19-tetraoxa-4,10,16,22-tetraazacyclotetracosan-2,5,8,11,14,17,20,23-octaone]",0.0001 to 0.001 µM,0.01 to 0.1 µM,1 to 10 µM
"CC(C)C[C@H]1C(=O)O[C@H](Cc2ccc(Cn3nc(C(F)F)cc3C(F)F)cc2)C(=O)N(C)[C@@H](CC(C)C)C(=O)O[C@H](C)C(=O)N(C)[C@@H](CC(C)C)C(=O)O[C@H](Cc2ccc(Cn3nc(C(F)F)cc3C(F)F)cc2)C(=O)N(C)[C@@H](CC(C)C)C(=O)O[C@H](C)C(=O)N1C [Example 1b-89, (3S,6R,9S,12R,15S,18R,21S,24R)-6,18-bis(4-((3,5-bis(difluoromethyl)-1H-pyrazol-1-yl)methyl)benzyl)-3,9,15,21-tetraisobutyl-4,10,12,16,22,24-hexamethyl-1,7,13,19-tetraoxa-4,10,16,22-tetraazacyclotetracosan-2,5,8,11,14,17,20,23-octaone]",≤ 0.0001 µM,0.001 to 0.01 µM,≤ 1 µM
"CC(C)C[C@H]1C(=O)O[C@H](Cc2ccc(Cn3ccc(N)n3)cc2)C(=O)N(C)[C@@H](CC(C)C)C(=O)O[C@H](C)C(=O)N(C)[C@@H](CC(C)C)C(=O)O[C@H](Cc2ccc(Cn3ccc(N)n3)cc2)C(=O)N(C)[C@@H](CC(C)C)C(=O)O[C@H](C)C(=O)N1C [Example 1b-143, (3S,6R,9S,12R,15S,18R,21S,24R)-6,18-bis(4-((3-amino-1H-pyrazol-1-yl)methyl)benzyl)-3,9,15,21-tetraisobutyl-4,10,12,16,22,24-hexamethyl-1,7,13,19-tetraoxa-4,10,16,22-tetraazacyclotetracosan-2,5,8,11,14,17,20,23-octaone]",0.001 to 0.01 µM,0.001 to 0.01 µM,1 to 10 µM
"CC(C)C[C@H]1C(=O)O[C@H](Cc2ccc(Cn3cnc(Br)c3)cc2)C(=O)N(C)[C@@H](CC(C)C)C(=O)O[C@H](C)C(=O)N(C)[C@@H](CC(C)C)C(=O)O[C@H](Cc2ccccc2)C(=O)N(C)[C@@H](CC(C)C)C(=O)O[C@H](C)C(=O)N1C [Example 8-15, (3S,6R,9S,12R,15S,18R,21S,24R)-6-benzyl-18-(4-((4-bromo-1H-imidazol-1-yl)methyl)benzyl)-3,9,15,21-tetraisobutyl-4,10,12,16,22,24-hexamethyl-1,7,13,19-tetraoxa-4,10,16,22-tetraazacyclotetracosan-2,5,8,11,14,17,20,23-octaone]",0.0001 to 0.001 µM,0.001 to 0.01 µM,1 to 10 µM
"CC(C)C[C@H]1C(=O)O[C@H](Cc2ccc(Cn3cc(Cl)cn3)cc2)C(=O)N(C)[C@@H](CC(C)C)C(=O)O[C@H](C)C(=O)N(C)[C@@H](CC(C)C)C(=O)O[C@H](Cc2ccc(Cn3cc(Cl)cn3)cc2)C(=O)N(C)[C@@H](CC(C)C)C(=O)O[C@H](C)C(=O)N1C [Example 1b-35, (3S,6R,9S,12R,15S,18R,21S,24R)-6,18-bis(4-((4-chloro-1H-pyrazol-1-yl)methyl)benzyl)-3,9,15,21-tetraisobutyl-4,10,12,16,22,24-hexamethyl-1,7,13,19-tetraoxa-4,10,16,22-tetraazacyclotetracosan-2,5,8,11,14,17,20,23-octaone]",0.0001 to 0.001 µM,0.001 to 0.01 µM,10 to 100 µM
"CC(C)C[C@H]1C(=O)O[C@H](Cc2ccc(C3(n4cccn4)CCC3)cc2)C(=O)N(C)[C@@H](CC(C)C)C(=O)O[C@H](C)C(=O)N(C)[C@@H](CC(C)C)C(=O)O[C@H](Cc2ccc(C3(n4cccn4)CCC3)cc2)C(=O)N(C)[C@@H](CC(C)C)C(=O)O[C@H](C)C(=O)N1C [Example 1c-1, (3S,6R,9S,12R,15S,18R,21S,24R)-6,18-bis(4-(1-(1H-pyrazol-1-yl)cyclobutyl)benzyl)-3,9,15,21-tetraisobutyl-4,10,12,16,22,24-hexamethyl-1,7,13,19-tetraoxa-4,10,16,22-tetraazacyclotetracosan-2,5,8,11,14,17,20,23-octaone]",≤ 0.0001 µM,–,≤ 1 µM
"CC(C)C[C@H]1C(=O)O[C@H](Cc2ccc(Cn3cccn3)cc2)C(=O)N(C)[C@@H](CC(C)C)C(=O)O[C@H](C)C(=O)N(C)[C@@H](CC(C)C)C(=O)O[C@H](Cc2ccccc2)C(=O)N(C)[C@@H](CC(C)C)C(=O)O[C@H](C)C(=O)N1C [Example 2-1, (3S,6R,9S,12R,15S,18R,21S,24R)-6-benzyl-3,9,15,21-tetraisobutyl-4,10,12,16,22,24-hexamethyl-18-[[4-(pyrazol-1-ylmethyl)phenyl]methyl]-1,7,13,19-tetraoxa-4,10,16,22-tetrazacyclotetracosane-2,5,8,11,14,17,20,23-octaone]",0.0001 to 0.001 µM,–,1 to 10 µM
"CC(C)C[C@H]1C(=O)O[C@H](Cc2ccc(Cn3c(C#N)ccc3C#N)cc2)C(=O)N(C)[C@@H](CC(C)C)C(=O)O[C@H](C)C(=O)N(C)[C@@H](CC(C)C)C(=O)O[C@H](Cc2ccccc2)C(=O)N(C)[C@@H](CC(C)C)C(=O)O[C@H](C)C(=O)N1C [Example 10-31, 1-(4-(((2R,5S,8R,11S,14R,17S,20R,23S)-14-benzyl-5,11,17,23-tetraisobutyl-4,8,10,16,20,22-hexamethyl-3,6,9,12,15,18,21,24-octaoxo-1,7,13,19-tetraoxa-4,10,16,22-tetraazacyclotetracosan-2-yl)methyl)benzyl)-1H-pyrrole-2,5-dicarbonitrile]",≤ 0.0001 µM,–,1 to 10 µM
"CCc1ncnn1Cc1ccc(C[C@H]2OC(=O)[C@H](CC(C)C)N(C)C(=O)[C@@H](C)OC(=O)[C@H](CC(C)C)N(C)C(=O)[C@@H](Cc3ccc(Cn4ncnc4CC)cc3)OC(=O)[C@H](CC(C)C)N(C)C(=O)[C@@H](C)OC(=O)[C@H](CC(C)C)N(C)C2=O)cc1 [Example 9-50, (3S,6R,9S,12R,15S,18R,21S,24R)-6,18-bis(4-((5-ethyl-1H-1,2,4-triazol-1-yl)methyl)benzyl)-3,9,15,21-tetraisobutyl-4,10,12,16,22,24-hexamethyl-1,7,13,19-tetraoxa-4,10,16,22-tetraazacyclotetracosan-2,5,8,11,14,17,20,23-octaone]",0.001 to 0.01 µM,–,1 to 10 µM
"CC(C)C[C@H]1C(=O)O[C@H](Cc2ccc(Cn3ccc(Cl)n3)cc2)C(=O)N(C)[C@@H](CC(C)C)C(=O)O[C@H](C)C(=O)N(C)[C@@H](CC(C)C)C(=O)O[C@H](Cc2ccc(Cn3ccc(Cl)n3)cc2)C(=O)N(C)[C@@H](CC(C)C)C(=O)O[C@H](C)C(=O)N1C [Example 1b-96, (3S,6R,9S,12R,15S,18R,21S,24R)-6,18-bis(4-((3-chloro-1H-pyrazol-1-yl)methyl)benzyl)-3,9,15,21-tetraisobutyl-4,10,12,16,22,24-hexamethyl-1,7,13,19-tetraoxa-4,10,16,22-tetraazacyclotetracosan-2,5,8,11,14,17,20,23-octaone]",≤ 0.0001 µM,–,≤ 1 µM
